Assay results as given in paper PMC5218480 (PLoS ONE, 2017).

System: MV-4-11 cells
Experiment: Gene expression microarray analysis (Affymetrix PrimeView) and GSEA
Type: cell-based, human
Design: RFU PODN (11730768_x_at) / Fold change /veh PODN (11730768_x_at) / RFU LINC00158 (11744669_a_at) / Fold change /veh LINC00158 (11744669_a_at) / RFU DUSP10 (11751237_a_at) / Fold change /veh DUSP10 (11751237_a_at) / RFU ID3 (11757404_x_at) / Fold change /veh ID3 (11757404_x_at) / RFU PLEKHG5 (11737974_s_at) / Fold change /veh PLEKHG5 (11737974_s_at) / RFU LRRC4B (11730491_at) / Fold change /veh LRRC4B (11730491_at) / RFU GIMAP4 (11747438_a_at) / Fold change /veh GIMAP4 (11747438_a_at) / RFU KRT8 (11758183_x_at) / Fold change /veh KRT8 (11758183_x_at) / RFU CNN1 (11734310_a_at) / Fold change /veh CNN1 (11734310_a_at) / RFU VPS37D (11726825_at) / Fold change /veh VPS37D (11726825_at) / RFU C10orf10 (11716522_x_at) / Fold change /veh C10orf10 (11716522_x_at) / RFU KIR2DL2 /// KIR2DL4 /// KIR2DL5A /// KIR2DL5B /// KIR2DS1 /// KIR2DS2 /// KIR2DS3 /// KIR2DS4 /// KIR3DL3 /// KIR3DL3 /// KIR3DS1 (11738374_at) / Fold change /veh KIR2DL2 /// KIR2DL4 /// KIR2DL5A /// KIR2DL5B /// KIR2DS1 /// KIR2DS2 /// KIR2DS3 /// KIR2DS4 /// KIR3DL3 /// KIR3DL3 /// KIR3DS1 (11738374_at) / RFU C1QL1 (11718748_at) / Fold change /veh C1QL1 (11718748_at) / RFU TMPRSS4 (11747572_a_at) / Fold change /veh TMPRSS4 (11747572_a_at) / RFU HAMP (11756126_x_at) / Fold change /veh HAMP (11756126_x_at) / RFU RNFT2 (11725882_a_at) / Fold change /veh RNFT2 (11725882_a_at) / RFU NR4A2 (11747474_a_at) / Fold change /veh NR4A2 (11747474_a_at) / RFU ABCC12 (11746883_a_at) / Fold change /veh ABCC12 (11746883_a_at) / RFU TMEM136 (11760407_x_at) / Fold change /veh TMEM136 (11760407_x_at) / RFU CLDN22 /// WWC2 (11732394_at) / Fold change /veh CLDN22 /// WWC2 (11732394_at) / RFU HLA-DPB1 (11760878_x_at) / Fold change /veh HLA-DPB1 (11760878_x_at) / RFU SPINT1 (11716480_a_at) / Fold change /veh SPINT1 (11716480_a_at) / RFU GAP43 (11754022_s_at) / Fold change /veh GAP43 (11754022_s_at) / RFU A4GNT (11735810_at) / Fold change /veh A4GNT (11735810_at) / RFU PRB3 (11715151_x_at) / Fold change /veh PRB3 (11715151_x_at) / RFU TUBB4B (11761932_at) / Fold change /veh TUBB4B (11761932_at) / RFU CAPN14 (11732068_a_at) / Fold change /veh CAPN14 (11732068_a_at) / RFU TMCC2 (11721928_a_at) / Fold change /veh TMCC2 (11721928_a_at) / RFU IRGQ (11745062_a_at) / Fold change /veh IRGQ (11745062_a_at) / RFU FAM174B (11720279_a_at) / Fold change /veh FAM174B (11720279_a_at) / RFU TMPRSS4 (11748680_a_at) / Fold change /veh TMPRSS4 (11748680_a_at) / RFU FAM212B (11763350_a_at) / Fold change /veh FAM212B (11763350_a_at) / RFU PLEKHG5 (11743358_a_at) / Fold change /veh PLEKHG5 (11743358_a_at) / RFU ZSCAN30 (11745921_a_at) / Fold change /veh ZSCAN30 (11745921_a_at) / RFU CMKLR1 (11741424_a_at) / Fold change /veh CMKLR1 (11741424_a_at) / RFU LOC101060620 /// MAPK8IP1 (11723275_at) / Fold change /veh LOC101060620 /// MAPK8IP1 (11723275_at) / RFU SPTSSB (11747773_x_at) / Fold change /veh SPTSSB (11747773_x_at) / RFU PRSS12 (11739890_at) / Fold change /veh PRSS12 (11739890_at) / RFU BIN1 (11741810_x_at) / Fold change /veh BIN1 (11741810_x_at) / RFU WNT11 (11732464_a_at) / Fold change /veh WNT11 (11732464_a_at) / RFU C10orf10 (11716521_a_at) / Fold change /veh C10orf10 (11716521_a_at) / RFU C5orf56 (11738089_at) / Fold change /veh C5orf56 (11738089_at) / RFU CYB561 (11721691_x_at) / Fold change /veh CYB561 (11721691_x_at) / RFU ANKRD19P (11752326_a_at) / Fold change /veh ANKRD19P (11752326_a_at) / RFU OR2T12 /// OR2T33 /// OR2T8 (11738714_s_at) / Fold change /veh OR2T12 /// OR2T33 /// OR2T8 (11738714_s_at) / RFU VCAN (11748164_a_at) / Fold change /veh VCAN (11748164_a_at) / RFU JSRP1 (11732532_at) / Fold change /veh JSRP1 (11732532_at) / RFU KRTAP10-11 (11738290_x_at) / Fold change /veh KRTAP10-11 (11738290_x_at) / RFU MYO3A (11730013_a_at) / Fold change /veh MYO3A (11730013_a_at) / RFU EBF3 (11725865_a_at) / Fold change /veh EBF3 (11725865_a_at) / RFU CAMK2N1 (11719241_x_at) / Fold change /veh CAMK2N1 (11719241_x_at) / RFU C5orf56 (11738088_a_at) / Fold change /veh C5orf56 (11738088_a_at) / RFU OLFML3 (11715873_a_at) / Fold change /veh OLFML3 (11715873_a_at) / RFU LOC100653217 /// NTM (11731650_a_at) / Fold change /veh LOC100653217 /// NTM (11731650_a_at) / RFU MAPK11 (11762145_a_at) / Fold change /veh MAPK11 (11762145_a_at) / RFU FIZ1 (11724087_x_at) / Fold change /veh FIZ1 (11724087_x_at) / RFU OASL (11726364_x_at) / Fold change /veh OASL (11726364_x_at) / RFU SOX15 (11748057_x_at) / Fold change /veh SOX15 (11748057_x_at) / RFU CD79A (11719716_a_at) / Fold change /veh CD79A (11719716_a_at) / RFU HIST1H1D (11736915_at) / Fold change /veh HIST1H1D (11736915_at) / RFU CASKIN2 (11723855_a_at) / Fold change /veh CASKIN2 (11723855_a_at) / RFU LOC730098 (11760151_x_at) / Fold change /veh LOC730098 (11760151_x_at) / RFU OR4N2 (11742367_at) / Fold change /veh OR4N2 (11742367_at) / RFU PRRT2 (11749266_a_at) / Fold change /veh PRRT2 (11749266_a_at) / RFU SNX32 (11753110_a_at) / Fold change /veh SNX32 (11753110_a_at) / RFU CDHR5 (11726645_a_at) / Fold change /veh CDHR5 (11726645_a_at) / RFU RCAN1 (11760418_a_at) / Fold change /veh RCAN1 (11760418_a_at) / RFU FAM167A (11723789_a_at) / Fold change /veh FAM167A (11723789_a_at) / RFU FAM26E (11764081_at) / Fold change /veh FAM26E (11764081_at) / RFU ISYNA1 (11749810_s_at) / Fold change /veh ISYNA1 (11749810_s_at) / RFU ACY1 (11761880_at) / Fold change /veh ACY1 (11761880_at) / RFU 11764098_at / Fold change /veh 11764098_at / RFU SAMD14 (11745864_x_at) / Fold change /veh SAMD14 (11745864_x_at) / RFU NPB (11741838_a_at) / Fold change /veh NPB (11741838_a_at) / RFU TMPRSS6 (11731388_a_at) / Fold change /veh TMPRSS6 (11731388_a_at) / RFU KRTAP10-2 (11738614_at) / Fold change /veh KRTAP10-2 (11738614_at) / RFU ARHGAP8 /// PRR5-ARHGAP8 (11727945_x_at) / Fold change /veh ARHGAP8 /// PRR5-ARHGAP8 (11727945_x_at) / RFU KRTAP5-7 /// NADSYN1 (11734609_at) / Fold change /veh KRTAP5-7 /// NADSYN1 (11734609_at) / RFU RASL12 (11751679_a_at) / Fold change /veh RASL12 (11751679_a_at) / RFU CDKN2B (11736163_a_at) / Fold change /veh CDKN2B (11736163_a_at) / RFU PRF1 (11729649_at) / Fold change /veh PRF1 (11729649_at) / RFU, ZNF638 /// ZNF638-IT1 / Fold change vs veh, ZNF638 /// ZNF638-IT1 / RFU, PANK3 / Fold change vs veh, PANK3 / RFU, SH3YL1 / Fold change vs veh, SH3YL1 / RFU, ZEB2 / Fold change vs veh, ZEB2 / RFU, NRIP1 / Fold change vs veh, NRIP1 / RFU, PTTG1IP / Fold change vs veh, PTTG1IP / RFU, CAPN2 / Fold change vs veh, CAPN2 / RFU, MED14 / Fold change vs veh, MED14 / RFU, SNORA58 / Fold change vs veh, SNORA58 / RFU, C1orf63 / Fold change vs veh, C1orf63 / RFU, LRRFIP1 / Fold change vs veh, LRRFIP1 / RFU, NDUFAF7 / Fold change vs veh, NDUFAF7 / RFU, SLC12A2 / Fold change vs veh, SLC12A2 / RFU, IBTK / Fold change vs veh, IBTK / RFU, ESF1 / Fold change vs veh, ESF1 / Fold change vs veh, TMEM50B / RFU, TAOK1 / Fold change vs veh, TAOK1 / RFU, ACBD3 / Fold change vs veh, ACBD3 / RFU, TMA16 / Fold change vs veh, TMA16 / RFU, RWDD3 / Fold change vs veh, RWDD3 / RFU, BCAT1 / Fold change vs veh, BCAT1 / RFU, EDEM3 / Fold change vs veh, EDEM3 / RFU, TMEM33 / Fold change vs veh, TMEM33 / RFU, WDR75 / Fold change vs veh, WDR75 / RFU, AHCTF1 / Fold change vs veh, AHCTF1 / RFU, TFRC / Fold change vs veh, TFRC / RFU, ZDHHC17 / Fold change vs veh, ZDHHC17 / RFU, NOM1 / Fold change vs veh, NOM1 / RFU, ARL8B / Fold change vs veh, ARL8B / RFU, ZBTB11 / Fold change vs veh, ZBTB11 / RFU, TAMM41 / Fold change vs veh, TAMM41 / RFU, KIAA1704 /// LOC100996395 / Fold change vs veh, KIAA1704 /// LOC100996395 / RFU, ING1 / Fold change vs veh, ING1 / RFU, TRMT61B / Fold change vs veh, TRMT61B / RFU, FUBP3 / Fold change vs veh, FUBP3 / RFU, TP53 / Fold change vs veh, TP53 / RFU, TNKS2 / Fold change vs veh, TNKS2 / RFU, ZFP14 / Fold change vs veh, ZFP14 / RFU, ACTR2 / Fold change vs veh, ACTR2 / RFU, PPP3R1 / Fold change vs veh, PPP3R1 / RFU, PIK3R1 / Fold change vs veh, PIK3R1 / RFU, HNRNPA1 / Fold change vs veh, HNRNPA1 / RFU, RNF170 / Fold change vs veh, RNF170 / RFU, ZNF28 / Fold change vs veh, ZNF28 / RFU, RNGTT / Fold change vs veh, RNGTT / RFU, OGT / Fold change vs veh, OGT / RFU, BRD1 / Fold change vs veh, BRD1 / RFU, MARS / Fold change vs veh, MARS / RFU, ZNF655 / Fold change vs veh, ZNF655 / RFU, FAHD1 / Fold change vs veh, FAHD1 / RFU, BDP1 / Fold change vs veh, BDP1 / RFU, LRRCC1 / Fold change vs veh, LRRCC1 / RFU, ARID1A / Fold change vs veh, ARID1A / RFU, ZNF146 / Fold change vs veh, ZNF146 / RFU, ZNF330 / Fold change vs veh, ZNF330 / RFU, GPN3 / Fold change vs veh, GPN3 / RFU, C9orf123 / Fold change vs veh, C9orf123 / RFU, N4BP2L2 / Fold change vs veh, N4BP2L2 / RFU, ARFIP1 / Fold change vs veh, ARFIP1 / RFU, FAM179B / Fold change vs veh, FAM179B / RFU, BCL10 / Fold change vs veh, BCL10 / RFU, UHRF1BP1L / Fold change vs veh, UHRF1BP1L / RFU, BET1 / Fold change vs veh, BET1 / RFU, CNOT2 / Fold change vs veh, CNOT2 / RFU, ZNF268 / Fold change vs veh, ZNF268 / Fold change vs veh, ZNF507 / RFU, DGCR2 / Fold change vs veh, DGCR2 / RFU, WDSUB1 / Fold change vs veh, WDSUB1 / Fold change vs veh, HSP90B1 /// MIR3652 / RFU, ADSS / Fold change vs veh, ADSS / RFU, GK / Fold change vs veh, GK / RFU, ZNF148 / Fold change vs veh, ZNF148 / RFU, TAF9 / Fold change vs veh, TAF9 / RFU, SLC1A5 / Fold change vs veh, SLC1A5 / RFU, SLMO2 / Fold change vs veh, SLMO2 / RFU, ABCC4 / Fold change vs veh, ABCC4 / RFU, LOC101060439 /// RAP1B / Fold change vs veh, LOC101060439 /// RAP1B / RFU, RFX7 / Fold change vs veh, RFX7 / RFU, GTPBP10 / Fold change vs veh, GTPBP10 / RFU, CNEP1R1 / Fold change vs veh, CNEP1R1 / RFU, BIVM-ERCC5 /// ERCC5 / Fold change vs veh, BIVM-ERCC5 /// ERCC5 / RFU, ILF3 / Fold change vs veh, ILF3 / RFU 11762660_at / Fold change /veh 11762660_at / RFU VCAN (11757783_s_at) / Fold change /veh VCAN (11757783_s_at) / RFU DDX43 (11728927_at) / Fold change /veh DDX43 (11728927_at) / RFU KRT8 (11758188_x_at) / Fold change /veh KRT8 (11758188_x_at) / RFU NKD1 (11759106_at) / Fold change /veh NKD1 (11759106_at) / RFU SRD5A1 (11742802_a_at) / Fold change /veh SRD5A1 (11742802_a_at) / RFU TPSAB1 /// TPSB2 (11721975_s_at) / Fold change /veh TPSAB1 /// TPSB2 (11721975_s_at) / RFU GSTM3 (11746129_a_at) / Fold change /veh GSTM3 (11746129_a_at) / RFU IL23R (11737362_x_at) / Fold change /veh IL23R (11737362_x_at) / RFU TMEM51 (11727254_a_at) / Fold change /veh TMEM51 (11727254_a_at) / RFU PIWIL2 (11732686_x_at) / Fold change /veh PIWIL2 (11732686_x_at) / RFU ORM1 (11744905_x_at) / Fold change /veh ORM1 (11744905_x_at) / RFU CCDC152 (11743942_at) / Fold change /veh CCDC152 (11743942_at) / RFU ECM1 (11717891_a_at) / Fold change /veh ECM1 (11717891_a_at) / RFU IL23R (11748794_a_at) / Fold change /veh IL23R (11748794_a_at) / RFU TNFAIP8L3 (11732012_x_at) / Fold change /veh TNFAIP8L3 (11732012_x_at) / RFU MBOAT4 (11741988_at) / Fold change /veh MBOAT4 (11741988_at) / RFU 11764193_at / Fold change /veh 11764193_at / RFU TMEM53 (11763286_at) / Fold change /veh TMEM53 (11763286_at) / RFU MAGEB2 (11727129_at) / Fold change /veh MAGEB2 (11727129_at) / RFU TMEM200A (11744735_a_at) / Fold change /veh TMEM200A (11744735_a_at) / RFU CCDC152 (11751479_a_at) / Fold change /veh CCDC152 (11751479_a_at) / RFU FAM211A (11726209_a_at) / Fold change /veh FAM211A (11726209_a_at) / RFU RGS16 (11746705_a_at) / Fold change /veh RGS16 (11746705_a_at) / RFU VCAN (11755009_s_at) / Fold change /veh VCAN (11755009_s_at) / RFU RHOB (11743442_s_at) / Fold change /veh RHOB (11743442_s_at) / RFU RGS16 (11720943_a_at) / Fold change /veh RGS16 (11720943_a_at) / RFU RGS16 (11720944_at) / Fold change /veh RGS16 (11720944_at) / RFU, VPS4B / Fold change vs veh, VPS4B / RFU, CREB1 / Fold change vs veh, CREB1 / RFU, DNAJC13 / Fold change vs veh, DNAJC13 / RFU, GNAQ / Fold change vs veh, GNAQ / RFU, CDK5R1 / Fold change vs veh, CDK5R1 / RFU, ZRANB3 / Fold change vs veh, ZRANB3 / RFU, CUL4A / Fold change vs veh, CUL4A / RFU, CCNY / Fold change vs veh, CCNY / RFU, UFL1 / Fold change vs veh, UFL1 / RFU, COG3 / Fold change vs veh, COG3 / RFU, DIAPH2 / Fold change vs veh, DIAPH2 / RFU, SKA2 / Fold change vs veh, SKA2 / RFU, AFF3 / Fold change vs veh, AFF3 / RFU, LMF1 / Fold change vs veh, LMF1 / RFU, IPO11 / Fold change vs veh, IPO11 / RFU, DFFB / Fold change vs veh, DFFB / RFU, FOXP1 / Fold change vs veh, FOXP1 / RFU, CARD8 / Fold change vs veh, CARD8 / RFU, STRN3 / Fold change vs veh, STRN3 / RFU, ADK / Fold change vs veh, ADK / RFU, RASSF2 / Fold change vs veh, RASSF2 / RFU, WIPF1 / Fold change vs veh, WIPF1 / RFU, LARP1B / Fold change vs veh, LARP1B / RFU, RASA1 / Fold change vs veh, RASA1 / RFU, RB1 / Fold change vs veh, RB1 / RFU, PPFIA1 / Fold change vs veh, PPFIA1 / RFU, MAT2A / Fold change vs veh, MAT2A / RFU, CCT5 / Fold change vs veh, CCT5 / RFU, WDR92 / Fold change vs veh, WDR92 / RFU, CUX1 / Fold change vs veh, CUX1 / RFU, TTC7A / Fold change vs veh, TTC7A / RFU, TMEM135 / Fold change vs veh, TMEM135 / RFU, DEPTOR / Fold change vs veh, DEPTOR / RFU, CPM / Fold change vs veh, CPM / RFU, DNAJB6 / Fold change vs veh, DNAJB6 / RFU, CACNA2D3 / Fold change vs veh, CACNA2D3 / RFU, DTX4 / Fold change vs veh, DTX4 / RFU, TFCP2 / Fold change vs veh, TFCP2 / RFU, GMCL1 /// GMCL1P1 / Fold change vs veh, GMCL1 /// GMCL1P1 / RFU, AEBP2 / Fold change vs veh, AEBP2 / RFU, SNHG1 /// SNORD22 /// SNORD25 /// SNORD26 /// SNORD27 /// SNORD28 /// SNORD29 /// SNORD31 / Fold change vs veh, SNHG1 /// SNORD22 /// SNORD25 /// SNORD26 /// SNORD27 /// SNORD28 /// SNORD29 /// SNORD31 / Fold change (Aza/veh), C12orf56 (ProbeSet 11735607_a_at) / Fold change (ACY-1035/veh), C12orf56 (ProbeSet 11735607_a_at) / Fold change (Aza/veh), FGFR1OP (ProbeSet 11751329_s_at) / Fold change (ACY-1035/veh), FGFR1OP (ProbeSet 11751329_s_at) / Fold change (Aza/veh), VPS36 (ProbeSet 11739960_a_at) / Fold change (ACY-1035/veh), VPS36 (ProbeSet 11739960_a_at) / RFU SYPL1 (11715823_x_at) / Fold change /veh SYPL1 (11715823_x_at) / RFU IGFBP7 (11715501_s_at) / Fold change /veh IGFBP7 (11715501_s_at) / RFU REEP3 (11722064_at) / Fold change /veh REEP3 (11722064_at) / RFU IGLL1 (11728026_x_at) / Fold change /veh IGLL1 (11728026_x_at): dose or concentration left out as unconfirmed
Settings: ProbeSet 11725100_s_at; LIST B

In the case of `Nc1ccc(-c2cccs2)cc1NC(=O)c1ccc2c(c1)cc(C1CC1)n2CCN1CCOCC1` [ACY-1035], the “RFU, ESF1” value is reported as 97.73 RFU.
